{"source": "patent US9399649B2", "about": "“Compounds for treating spinal muscular atrophy” (PTC Therapeutics Inc., priority 2012, dated 2016)", "key": {"[1]": {"system": "full length and Δ7 SMN2 mRNA", "assay": "SMN2 mRNA RT-qPCR splicing assay in animal tissues", "assay_type": "in vivo", "settings": "C/C-allele SMA mice, brain and muscle, 10 mg/kg oral BID for 10 days, FIG. 6", "method": "The reverse transcription-quantitative PCR-based (RT-qPCR) assay is used to quantify the levels of the full length and Δ7 SMN2 mRNA in tissues from mice treated with test compound.\nC/C-allele SMA mice are treated by oral gavage two times per day (BID) for 10 days with test compounds re-suspended in 0.5% HPMC and 0.1% Tween-80. Tissue samples were collected and snap frozen for RNA purification.\nTissue samples (20-40 mg) are homogenized in QIAzol Lysis Reagent for 2 minutes at 20 Hz in the TissueLyser II using one stainless steel bead. After addition of chloroform, the homogenate is separated into aqueous and organic phases by centrifugation. RNA partitioned to the upper, aqueous phase is extracted and ethanol is added to provide appropriate binding conditions. The sample is then applied to the RNeasy spin column from the RNeasy Mini Kit, where total RNA binds to the membrane. The RNA is eluted in RNase-free water then stored at −20° C. and subsequently analyzed using the TaqMan RT-qPCR on the 7900HT Thermocycler. Total RNA is diluted ten fold and 2.5 μL, of the diluted sample is added to the TaqMan RT-qPCR mixture.\nSMN2 spliced products are identified using the following primers and probes in Table 7. Primer SMN FL Forward B (SEQ ID NO. 7) hybridizes to a nucleotide sequence in exons 7 and 8, primer SMN Δ7 Forward B (SEQ ID NO. 8) hybridizes to a nucleotide sequence in exons 6 and 8, primer SMN Reverse B (SEQ ID NO. 9) hybridizes to a nucleotide sequence in exon 8, probe SMN Probe B (SEQ ID NO. 10) hybridizes to a nucleotide sequence in exon 8. These primers and probe hybridize to nucleotide sequences common to human SMN1 and SMN2 mRNA. Since the SMA patient cells used in Example 5 contain only the SMN2 gene, RT-qPCR can quantify only SMN2 full-length and Δ7 mRNA.\nThe SMN forward and reverse primers are used at final concentrations of 0.4 μM. The SMN probe is used at a final concentration of 0.15 μM. The SMN-GAPDH Mix (10 μL, total volume) is prepared by combining 5 μL of 2×RT-PCR buffer, 0.4 μL of 25×RT-PCR enzyme mix, 0.5 μL of 20×GAPDH primer-probe mix, 1.505 μL of water, 2.5 μL of RNA solution, 0.04 μL of 100 μM forward primer, 0.04 μL of 100 μM reverse primer, and 0.015 μL of 100 μM SMN probe. […]\nThe increase of SMN2 FL and decrease in SMN2 Δ7 mRNA relative to those in tissues from animals treated with vehicle control are determined from real-time PCR data using a modified ΔΔCt method (as described in Livak and Schmittgen, Methods, 2001, 25:402-8). The amplification efficiency (E) is calculated from the slope of the amplification curve for SMN2 FL, SMN2 Δ7, and GAPDH individually. The abundances of SMN2 FL, SMN2 Δ7, and GAPDH are then calculated as (1+E)^−Ct, where Ct is the threshold value for each amplicon. […]"}, "Smn protein": {"system": "Smn protein", "assay": "Smn protein in tissues of neonatal Δ7 SMA mice", "assay_type": "in vivo", "settings": "neonatal SMA Δ7 homozygous knockout mice, IP QD for 7 days (PND 3 to PND 9), brain, spinal cord, muscle, FIG. 12", "method": "The tissue samples in Safe-Lock tubes are weighed and the volume of RIPA buffer containing the protease inhibitor cocktail is added based on the weight to volume ratios for each type of tissue: Brain (50 mgmL), Muscle (50 mgmL) and Spinal Cord (25 mgmL).\nTissues are homogenized using the TissueLyzer by bead milling. 5 mm stainless steel beads are added to the sample and shaken vigorously for 5 minutes at 30 Hz in the TissueLyzer. The samples are then centrifuged for 20 minutes at 14,000×g in a microcentrifuge and the homogenates transferred to the PCR plate. The homogenates are diluted in RIPA buffer to approximately 1 mgmL for HTRF and approximately 0.5 mgmL for total protein measurement using the BCA protein assay. […] Fluorescence for each well of the plate at 665 nm and 620 nm is measured on an EnVision multilabel plate reader (Perkin-Elmer). The total protein in the tissue homogenate is measured using the BCA assay according to the manufacturer's protocol.\nThe normalized fluorescence signal is calculated for each sample, Blank and vehicle control well by dividing the signal at 665 nm by the signal at 620 nm. Normalizing the signal accounts for possible fluorescence quenching due to the matrix effect of the tissue homogenate. […] The ΔF value for each tissue sample well is divided by the total protein quantity (determined using the BCA assay) for that tissue sample. […]"}}}
{"smiles": "Cc1cn2cc(-c3cc4ccc(N5CCN(C)CC5)cc4c(=O)o3)nc2c(C)n1", "note": "[Cpd 65, 3-(6,8-dimethylimidazo[1,2-a]pyrazin-2-yl)-7-(4-methylpiperazin-1-yl)-1H-isochromen-1-one]", "values": [{"measurement": "SMN2 FL mRNA in tissues", "setting": "[1]", "value": "substantially more SMN2 FL mRNA"}, {"measurement": "SMN2 Δ7 mRNA in tissues", "setting": "[1]", "value": "less SMN2 Δ7 mRNA"}, {"measurement": "total protein normalized Smn level in tissues", "setting": "Smn protein", "value": "dose dependently increased"}]}
{"smiles": "Cc1cn2cc(-c3cc4ccc(N5CCN6CCC[C@H]6C5)cc4c(=O)o3)nc2c(C)n1", "note": "[Cpd 69, 3-(6,8-dimethylimidazo[1,2-a]pyrazin-2-yl)-7-[(8aS)-hexahydropyrrolo[1,2-a]pyrazin-2(1H)-yl]-1H-isochromen-1-one]", "values": [{"measurement": "SMN2 FL mRNA in tissues", "setting": "[1]", "value": "substantially more SMN2 FL mRNA"}, {"measurement": "SMN2 Δ7 mRNA in tissues", "setting": "[1]", "value": "less SMN2 Δ7 mRNA"}]}
